Test results as given in paper PMC5218480 (PLoS ONE, 2017).

System: MV-4-11 cells
Assay: Gene expression microarray analysis (Affymetrix PrimeView) and GSEA
Format: cell-based, human
Set-up: RFU PODN (11730768_x_at) / Fold change /veh PODN (11730768_x_at) / RFU LINC00158 (11744669_a_at) / Fold change /veh LINC00158 (11744669_a_at) / RFU DUSP10 (11751237_a_at) / Fold change /veh DUSP10 (11751237_a_at) / RFU ID3 (11757404_x_at) / Fold change /veh ID3 (11757404_x_at) / RFU PLEKHG5 (11737974_s_at) / Fold change /veh PLEKHG5 (11737974_s_at) / RFU LRRC4B (11730491_at) / Fold change /veh LRRC4B (11730491_at) / RFU GIMAP4 (11747438_a_at) / Fold change /veh GIMAP4 (11747438_a_at) / RFU KRT8 (11758183_x_at) / Fold change /veh KRT8 (11758183_x_at) / RFU CNN1 (11734310_a_at) / Fold change /veh CNN1 (11734310_a_at) / RFU VPS37D (11726825_at) / Fold change /veh VPS37D (11726825_at) / RFU C10orf10 (11716522_x_at) / Fold change /veh C10orf10 (11716522_x_at) / RFU KIR2DL2 /// KIR2DL4 /// KIR2DL5A /// KIR2DL5B /// KIR2DS1 /// KIR2DS2 /// KIR2DS3 /// KIR2DS4 /// KIR3DL3 /// KIR3DL3 /// KIR3DS1 (11738374_at) / Fold change /veh KIR2DL2 /// KIR2DL4 /// KIR2DL5A /// KIR2DL5B /// KIR2DS1 /// KIR2DS2 /// KIR2DS3 /// KIR2DS4 /// KIR3DL3 /// KIR3DL3 /// KIR3DS1 (11738374_at) / RFU C1QL1 (11718748_at) / Fold change /veh C1QL1 (11718748_at) / RFU TMPRSS4 (11747572_a_at) / Fold change /veh TMPRSS4 (11747572_a_at) / RFU HAMP (11756126_x_at) / Fold change /veh HAMP (11756126_x_at) / RFU RNFT2 (11725882_a_at) / Fold change /veh RNFT2 (11725882_a_at) / RFU NR4A2 (11747474_a_at) / Fold change /veh NR4A2 (11747474_a_at) / RFU ABCC12 (11746883_a_at) / Fold change /veh ABCC12 (11746883_a_at) / RFU TMEM136 (11760407_x_at) / Fold change /veh TMEM136 (11760407_x_at) / RFU CLDN22 /// WWC2 (11732394_at) / Fold change /veh CLDN22 /// WWC2 (11732394_at) / RFU HLA-DPB1 (11760878_x_at) / Fold change /veh HLA-DPB1 (11760878_x_at) / RFU SPINT1 (11716480_a_at) / Fold change /veh SPINT1 (11716480_a_at) / RFU GAP43 (11754022_s_at) / Fold change /veh GAP43 (11754022_s_at) / RFU A4GNT (11735810_at) / Fold change /veh A4GNT (11735810_at) / RFU PRB3 (11715151_x_at) / Fold change /veh PRB3 (11715151_x_at) / RFU TUBB4B (11761932_at) / Fold change /veh TUBB4B (11761932_at) / RFU CAPN14 (11732068_a_at) / Fold change /veh CAPN14 (11732068_a_at) / RFU TMCC2 (11721928_a_at) / Fold change /veh TMCC2 (11721928_a_at) / RFU IRGQ (11745062_a_at) / Fold change /veh IRGQ (11745062_a_at) / RFU FAM174B (11720279_a_at) / Fold change /veh FAM174B (11720279_a_at) / RFU TMPRSS4 (11748680_a_at) / Fold change /veh TMPRSS4 (11748680_a_at) / RFU FAM212B (11763350_a_at) / Fold change /veh FAM212B (11763350_a_at) / RFU PLEKHG5 (11743358_a_at) / Fold change /veh PLEKHG5 (11743358_a_at) / RFU ZSCAN30 (11745921_a_at) / Fold change /veh ZSCAN30 (11745921_a_at) / RFU CMKLR1 (11741424_a_at) / Fold change /veh CMKLR1 (11741424_a_at) / RFU LOC101060620 /// MAPK8IP1 (11723275_at) / Fold change /veh LOC101060620 /// MAPK8IP1 (11723275_at) / RFU SPTSSB (11747773_x_at) / Fold change /veh SPTSSB (11747773_x_at) / RFU PRSS12 (11739890_at) / Fold change /veh PRSS12 (11739890_at) / RFU BIN1 (11741810_x_at) / Fold change /veh BIN1 (11741810_x_at) / RFU WNT11 (11732464_a_at) / Fold change /veh WNT11 (11732464_a_at) / RFU C10orf10 (11716521_a_at) / Fold change /veh C10orf10 (11716521_a_at) / RFU C5orf56 (11738089_at) / Fold change /veh C5orf56 (11738089_at) / RFU CYB561 (11721691_x_at) / Fold change /veh CYB561 (11721691_x_at) / RFU ANKRD19P (11752326_a_at) / Fold change /veh ANKRD19P (11752326_a_at) / RFU OR2T12 /// OR2T33 /// OR2T8 (11738714_s_at) / Fold change /veh OR2T12 /// OR2T33 /// OR2T8 (11738714_s_at) / RFU VCAN (11748164_a_at) / Fold change /veh VCAN (11748164_a_at) / RFU JSRP1 (11732532_at) / Fold change /veh JSRP1 (11732532_at) / RFU KRTAP10-11 (11738290_x_at) / Fold change /veh KRTAP10-11 (11738290_x_at) / RFU MYO3A (11730013_a_at) / Fold change /veh MYO3A (11730013_a_at) / RFU EBF3 (11725865_a_at) / Fold change /veh EBF3 (11725865_a_at) / RFU CAMK2N1 (11719241_x_at) / Fold change /veh CAMK2N1 (11719241_x_at) / RFU C5orf56 (11738088_a_at) / Fold change /veh C5orf56 (11738088_a_at) / RFU OLFML3 (11715873_a_at) / Fold change /veh OLFML3 (11715873_a_at) / RFU LOC100653217 /// NTM (11731650_a_at) / Fold change /veh LOC100653217 /// NTM (11731650_a_at) / RFU MAPK11 (11762145_a_at) / Fold change /veh MAPK11 (11762145_a_at) / RFU FIZ1 (11724087_x_at) / Fold change /veh FIZ1 (11724087_x_at) / RFU OASL (11726364_x_at) / Fold change /veh OASL (11726364_x_at) / RFU SOX15 (11748057_x_at) / Fold change /veh SOX15 (11748057_x_at) / RFU CD79A (11719716_a_at) / Fold change /veh CD79A (11719716_a_at) / RFU HIST1H1D (11736915_at) / Fold change /veh HIST1H1D (11736915_at) / RFU CASKIN2 (11723855_a_at) / Fold change /veh CASKIN2 (11723855_a_at) / RFU LOC730098 (11760151_x_at) / Fold change /veh LOC730098 (11760151_x_at) / RFU OR4N2 (11742367_at) / Fold change /veh OR4N2 (11742367_at) / RFU PRRT2 (11749266_a_at) / Fold change /veh PRRT2 (11749266_a_at) / RFU SNX32 (11753110_a_at) / Fold change /veh SNX32 (11753110_a_at) / RFU CDHR5 (11726645_a_at) / Fold change /veh CDHR5 (11726645_a_at) / RFU RCAN1 (11760418_a_at) / Fold change /veh RCAN1 (11760418_a_at) / RFU FAM167A (11723789_a_at) / Fold change /veh FAM167A (11723789_a_at) / RFU FAM26E (11764081_at) / Fold change /veh FAM26E (11764081_at) / RFU ISYNA1 (11749810_s_at) / Fold change /veh ISYNA1 (11749810_s_at) / RFU ACY1 (11761880_at) / Fold change /veh ACY1 (11761880_at) / RFU 11764098_at / Fold change /veh 11764098_at / RFU SAMD14 (11745864_x_at) / Fold change /veh SAMD14 (11745864_x_at) / RFU NPB (11741838_a_at) / Fold change /veh NPB (11741838_a_at) / RFU TMPRSS6 (11731388_a_at) / Fold change /veh TMPRSS6 (11731388_a_at) / RFU KRTAP10-2 (11738614_at) / Fold change /veh KRTAP10-2 (11738614_at) / RFU ARHGAP8 /// PRR5-ARHGAP8 (11727945_x_at) / Fold change /veh ARHGAP8 /// PRR5-ARHGAP8 (11727945_x_at) / RFU KRTAP5-7 /// NADSYN1 (11734609_at) / Fold change /veh KRTAP5-7 /// NADSYN1 (11734609_at) / RFU RASL12 (11751679_a_at) / Fold change /veh RASL12 (11751679_a_at) / RFU CDKN2B (11736163_a_at) / Fold change /veh CDKN2B (11736163_a_at) / RFU PRF1 (11729649_at) / Fold change /veh PRF1 (11729649_at) / RFU, ZNF638 /// ZNF638-IT1 / Fold change vs veh, ZNF638 /// ZNF638-IT1 / RFU, PANK3 / Fold change vs veh, PANK3 / RFU, SH3YL1 / Fold change vs veh, SH3YL1 / RFU, ZEB2 / Fold change vs veh, ZEB2 / RFU, NRIP1 / Fold change vs veh, NRIP1 / RFU, PTTG1IP / Fold change vs veh, PTTG1IP / RFU, CAPN2 / Fold change vs veh, CAPN2 / RFU, MED14 / Fold change vs veh, MED14 / RFU, SNORA58 / Fold change vs veh, SNORA58 / RFU, C1orf63 / Fold change vs veh, C1orf63 / RFU, LRRFIP1 / Fold change vs veh, LRRFIP1 / RFU, NDUFAF7 / Fold change vs veh, NDUFAF7 / RFU, SLC12A2 / Fold change vs veh, SLC12A2 / RFU, IBTK / Fold change vs veh, IBTK / RFU, ESF1 / Fold change vs veh, ESF1 / Fold change vs veh, TMEM50B / RFU, TAOK1 / Fold change vs veh, TAOK1 / RFU, ACBD3 / Fold change vs veh, ACBD3 / RFU, TMA16 / Fold change vs veh, TMA16 / RFU, RWDD3 / Fold change vs veh, RWDD3 / RFU, BCAT1 / Fold change vs veh, BCAT1 / RFU, EDEM3 / Fold change vs veh, EDEM3 / RFU, TMEM33 / Fold change vs veh, TMEM33 / RFU, WDR75 / Fold change vs veh, WDR75 / RFU, AHCTF1 / Fold change vs veh, AHCTF1 / RFU, TFRC / Fold change vs veh, TFRC / RFU, ZDHHC17 / Fold change vs veh, ZDHHC17 / RFU, NOM1 / Fold change vs veh, NOM1 / RFU, ARL8B / Fold change vs veh, ARL8B / RFU, ZBTB11 / Fold change vs veh, ZBTB11 / RFU, TAMM41 / Fold change vs veh, TAMM41 / RFU, KIAA1704 /// LOC100996395 / Fold change vs veh, KIAA1704 /// LOC100996395 / RFU, ING1 / Fold change vs veh, ING1 / RFU, TRMT61B / Fold change vs veh, TRMT61B / RFU, FUBP3 / Fold change vs veh, FUBP3 / RFU, TP53 / Fold change vs veh, TP53 / RFU, TNKS2 / Fold change vs veh, TNKS2 / RFU, ZFP14 / Fold change vs veh, ZFP14 / RFU, ACTR2 / Fold change vs veh, ACTR2 / RFU, PPP3R1 / Fold change vs veh, PPP3R1 / RFU, PIK3R1 / Fold change vs veh, PIK3R1 / RFU, HNRNPA1 / Fold change vs veh, HNRNPA1 / RFU, RNF170 / Fold change vs veh, RNF170 / RFU, ZNF28 / Fold change vs veh, ZNF28 / RFU, RNGTT / Fold change vs veh, RNGTT / RFU, OGT / Fold change vs veh, OGT / RFU, BRD1 / Fold change vs veh, BRD1 / RFU, MARS / Fold change vs veh, MARS / RFU, ZNF655 / Fold change vs veh, ZNF655 / RFU, FAHD1 / Fold change vs veh, FAHD1 / RFU, BDP1 / Fold change vs veh, BDP1 / RFU, LRRCC1 / Fold change vs veh, LRRCC1 / RFU, ARID1A / Fold change vs veh, ARID1A / RFU, ZNF146 / Fold change vs veh, ZNF146 / RFU, ZNF330 / Fold change vs veh, ZNF330 / RFU, GPN3 / Fold change vs veh, GPN3 / RFU, C9orf123 / Fold change vs veh, C9orf123 / RFU, N4BP2L2 / Fold change vs veh, N4BP2L2 / RFU, ARFIP1 / Fold change vs veh, ARFIP1 / RFU, FAM179B / Fold change vs veh, FAM179B / RFU, BCL10 / Fold change vs veh, BCL10 / RFU, UHRF1BP1L / Fold change vs veh, UHRF1BP1L / RFU, BET1 / Fold change vs veh, BET1 / RFU, CNOT2 / Fold change vs veh, CNOT2 / RFU, ZNF268 / Fold change vs veh, ZNF268 / Fold change vs veh, ZNF507 / RFU, DGCR2 / Fold change vs veh, DGCR2 / RFU, WDSUB1 / Fold change vs veh, WDSUB1 / Fold change vs veh, HSP90B1 /// MIR3652 / RFU, ADSS / Fold change vs veh, ADSS / RFU, GK / Fold change vs veh, GK / RFU, ZNF148 / Fold change vs veh, ZNF148 / RFU, TAF9 / Fold change vs veh, TAF9 / RFU, SLC1A5 / Fold change vs veh, SLC1A5 / RFU, SLMO2 / Fold change vs veh, SLMO2 / RFU, ABCC4 / Fold change vs veh, ABCC4 / RFU, LOC101060439 /// RAP1B / Fold change vs veh, LOC101060439 /// RAP1B / RFU, RFX7 / Fold change vs veh, RFX7 / RFU, GTPBP10 / Fold change vs veh, GTPBP10 / RFU, CNEP1R1 / Fold change vs veh, CNEP1R1 / RFU, BIVM-ERCC5 /// ERCC5 / Fold change vs veh, BIVM-ERCC5 /// ERCC5 / RFU, ILF3 / Fold change vs veh, ILF3 / RFU 11762660_at / Fold change /veh 11762660_at / RFU VCAN (11757783_s_at) / Fold change /veh VCAN (11757783_s_at) / RFU DDX43 (11728927_at) / Fold change /veh DDX43 (11728927_at) / RFU KRT8 (11758188_x_at) / Fold change /veh KRT8 (11758188_x_at) / RFU NKD1 (11759106_at) / Fold change /veh NKD1 (11759106_at) / RFU SRD5A1 (11742802_a_at) / Fold change /veh SRD5A1 (11742802_a_at) / RFU TPSAB1 /// TPSB2 (11721975_s_at) / Fold change /veh TPSAB1 /// TPSB2 (11721975_s_at) / RFU GSTM3 (11746129_a_at) / Fold change /veh GSTM3 (11746129_a_at) / RFU IL23R (11737362_x_at) / Fold change /veh IL23R (11737362_x_at) / RFU TMEM51 (11727254_a_at) / Fold change /veh TMEM51 (11727254_a_at) / RFU PIWIL2 (11732686_x_at) / Fold change /veh PIWIL2 (11732686_x_at) / RFU ORM1 (11744905_x_at) / Fold change /veh ORM1 (11744905_x_at) / RFU CCDC152 (11743942_at) / Fold change /veh CCDC152 (11743942_at) / RFU ECM1 (11717891_a_at) / Fold change /veh ECM1 (11717891_a_at) / RFU IL23R (11748794_a_at) / Fold change /veh IL23R (11748794_a_at) / RFU TNFAIP8L3 (11732012_x_at) / Fold change /veh TNFAIP8L3 (11732012_x_at) / RFU MBOAT4 (11741988_at) / Fold change /veh MBOAT4 (11741988_at) / RFU 11764193_at / Fold change /veh 11764193_at / RFU TMEM53 (11763286_at) / Fold change /veh TMEM53 (11763286_at) / RFU MAGEB2 (11727129_at) / Fold change /veh MAGEB2 (11727129_at) / RFU TMEM200A (11744735_a_at) / Fold change /veh TMEM200A (11744735_a_at) / RFU CCDC152 (11751479_a_at) / Fold change /veh CCDC152 (11751479_a_at) / RFU FAM211A (11726209_a_at) / Fold change /veh FAM211A (11726209_a_at) / RFU RGS16 (11746705_a_at) / Fold change /veh RGS16 (11746705_a_at) / RFU VCAN (11755009_s_at) / Fold change /veh VCAN (11755009_s_at) / RFU RHOB (11743442_s_at) / Fold change /veh RHOB (11743442_s_at) / RFU RGS16 (11720943_a_at) / Fold change /veh RGS16 (11720943_a_at) / RFU RGS16 (11720944_at) / Fold change /veh RGS16 (11720944_at) / RFU, VPS4B / Fold change vs veh, VPS4B / RFU, CREB1 / Fold change vs veh, CREB1 / RFU, DNAJC13 / Fold change vs veh, DNAJC13 / RFU, GNAQ / Fold change vs veh, GNAQ / RFU, CDK5R1 / Fold change vs veh, CDK5R1 / RFU, ZRANB3 / Fold change vs veh, ZRANB3 / RFU, CUL4A / Fold change vs veh, CUL4A / RFU, CCNY / Fold change vs veh, CCNY / RFU, UFL1 / Fold change vs veh, UFL1 / RFU, COG3 / Fold change vs veh, COG3 / RFU, DIAPH2 / Fold change vs veh, DIAPH2 / RFU, SKA2 / Fold change vs veh, SKA2 / RFU, AFF3 / Fold change vs veh, AFF3 / RFU, LMF1 / Fold change vs veh, LMF1 / RFU, IPO11 / Fold change vs veh, IPO11 / RFU, DFFB / Fold change vs veh, DFFB / RFU, FOXP1 / Fold change vs veh, FOXP1 / RFU, CARD8 / Fold change vs veh, CARD8 / RFU, STRN3 / Fold change vs veh, STRN3 / RFU, ADK / Fold change vs veh, ADK / RFU, RASSF2 / Fold change vs veh, RASSF2 / RFU, WIPF1 / Fold change vs veh, WIPF1 / RFU, LARP1B / Fold change vs veh, LARP1B / RFU, RASA1 / Fold change vs veh, RASA1 / RFU, RB1 / Fold change vs veh, RB1 / RFU, PPFIA1 / Fold change vs veh, PPFIA1 / RFU, MAT2A / Fold change vs veh, MAT2A / RFU, CCT5 / Fold change vs veh, CCT5 / RFU, WDR92 / Fold change vs veh, WDR92 / RFU, CUX1 / Fold change vs veh, CUX1 / RFU, TTC7A / Fold change vs veh, TTC7A / RFU, TMEM135 / Fold change vs veh, TMEM135 / RFU, DEPTOR / Fold change vs veh, DEPTOR / RFU, CPM / Fold change vs veh, CPM / RFU, DNAJB6 / Fold change vs veh, DNAJB6 / RFU, CACNA2D3 / Fold change vs veh, CACNA2D3 / RFU, DTX4 / Fold change vs veh, DTX4 / RFU, TFCP2 / Fold change vs veh, TFCP2 / RFU, GMCL1 /// GMCL1P1 / Fold change vs veh, GMCL1 /// GMCL1P1 / RFU, AEBP2 / Fold change vs veh, AEBP2 / RFU, SNHG1 /// SNORD22 /// SNORD25 /// SNORD26 /// SNORD27 /// SNORD28 /// SNORD29 /// SNORD31 / Fold change vs veh, SNHG1 /// SNORD22 /// SNORD25 /// SNORD26 /// SNORD27 /// SNORD28 /// SNORD29 /// SNORD31 / Fold change (Aza/veh), C12orf56 (ProbeSet 11735607_a_at) / Fold change (ACY-1035/veh), C12orf56 (ProbeSet 11735607_a_at) / Fold change (Aza/veh), FGFR1OP (ProbeSet 11751329_s_at) / Fold change (ACY-1035/veh), FGFR1OP (ProbeSet 11751329_s_at) / Fold change (Aza/veh), VPS36 (ProbeSet 11739960_a_at) / Fold change (ACY-1035/veh), VPS36 (ProbeSet 11739960_a_at) / RFU SYPL1 (11715823_x_at) / Fold change /veh SYPL1 (11715823_x_at) / RFU IGFBP7 (11715501_s_at) / Fold change /veh IGFBP7 (11715501_s_at) / RFU REEP3 (11722064_at) / Fold change /veh REEP3 (11722064_at) / RFU IGLL1 (11728026_x_at) / Fold change /veh IGLL1 (11728026_x_at): dose or concentration left out as unconfirmed
Conditions: ProbeSet 11739696_s_at; LIST D

## Nc1ccc(-c2cccs2)cc1NC(=O)c1ccc2c(c1)cc(C1CC1)n2CCN1CCOCC1 [ACY-1035]
  RFU, AFF3: 669.34 RFU
